Source: patent publication US20250179047A1, “5-[7-(3,4-DIHYDRO-1H-ISOQUINOLINE-2-CARBONYL)-1,2,3,4 TETRAHYDROISOQUINOLIN-6-YL]-1H-PYRROLE-3-CARBOXAMIDE DERIVATIVES, PHARMACEUTICAL COMPOSITIONS CONTAINING THEM AND THEIR USES AS PRO-APOPTOTIC AGENTS” (LES LABORATOIRES SERVIER, priority 2022, published 2025)
Where two headings read alike, the source gives them in different places.

Assays:
[1] = molecular target: BCL2 D103Y (Homo sapiens, UniProt P10415, D103Y); experiment: TR-FRET competitive binding assay, BCL2 D103Y; details: Ki determined from IC50, read-out: TR_FRET EKI_Bcl2 D103Y
In short: (§1)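 Terbium-labelled N-terminal Halo-fusion BCL2 or BCLXL (E. coli), 0.5 nM, competed against fluorescein-labelled PUMA peptide (2 or 20 nM) for 2 h at 23° C in 50 mM Hepes pH 7.5, 150 mM NaCl, 5% DMSO. TR-FRET 520/495 nm ratio gave IC50 by four-parameter fit; Ki derived from IC50.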

[2] = molecular target: BCLXL WT (Homo sapiens (Human), UniProt Q07817); experiment: TR-FRET competitive binding assay, BCLXL WT; details: for Ki: BCLXL WT, Ki determined from IC50, read-out: TR_FRET EKI BclxL; for TR_FRET EKI BCLxL/WT selectivty ratio: ratio Ki BCLxL / Ki BCL2 WT
BCLXL WT, sequence (Q07817 other isoform, or with tags, fused parts or gaps): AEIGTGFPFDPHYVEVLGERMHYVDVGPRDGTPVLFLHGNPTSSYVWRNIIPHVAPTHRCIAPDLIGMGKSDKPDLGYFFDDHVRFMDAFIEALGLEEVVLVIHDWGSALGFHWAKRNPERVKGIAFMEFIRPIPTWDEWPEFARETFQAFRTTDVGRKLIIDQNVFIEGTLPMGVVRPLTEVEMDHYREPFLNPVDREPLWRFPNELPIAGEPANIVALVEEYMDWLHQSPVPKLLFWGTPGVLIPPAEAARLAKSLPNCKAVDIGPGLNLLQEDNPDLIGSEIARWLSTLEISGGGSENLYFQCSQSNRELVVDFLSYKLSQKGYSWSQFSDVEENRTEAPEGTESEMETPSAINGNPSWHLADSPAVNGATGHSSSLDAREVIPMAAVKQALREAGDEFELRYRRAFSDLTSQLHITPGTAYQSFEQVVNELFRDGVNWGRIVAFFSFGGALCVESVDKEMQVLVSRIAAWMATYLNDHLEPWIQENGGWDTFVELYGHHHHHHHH
In short: as §1

[3] = test system: KMS-12-PE Bcl-2 WT; experiment: In vitro cytotoxicity CellTiter-Glo 48 h, KMS-12-PE Bcl-2 WT; format: cell-based; details: Homo sapiens, KMS-12-PE, C50 = concentration needed to reach 50% of the cellular viability
In short: (§2)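 CTG luminescence read-out; C50 = concentration reaching 50% cellular viability. Cells: KMS-12-PE expressing Bcl-2 WT or G101V (lentiviral, TagRFP-sorted). 11-pt curve, 48 h, 37 °C/5% CO2.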

[4] = molecular target: BCL2 D111A (Homo sapiens, UniProt P10415, D111A); experiment: TR-FRET competitive binding assay, BCL2 D111A; details: Ki determined from IC50, read-out: TR_FRET EKI_Bcl2 D111A
Method: (§3) The relative binding potency of each compound was determined in a competitive binding assay using time resolved-fluorescence resonance energy transfer (TR-FRET). The method utilised a fluorescein labelled peptide derived from PUMA (5Flu-Ahx-[…]-NH2 wherein Ahx means 6-hexanoic acid monomer and the amino acid sequence is referred to as SEQ ID:01) which binds to a terbium labelled BCL2 or BCLXL protein. The degree of binding or corresponding compound inhibition can be quantified by the TR-FRET signal between the terbium donor and fluorescein acceptor.
(§4) The human BCL2_wild-type (also named BCL2_wt), BCL2_G101V mutant and BCLXL_wild-type were E. coli expressed as a N-terminal Halo-fusion proteins and singly labelled with Terbium on the Halo protein to afford the following amino acid sequences:
(§5) wherein the BCL2(1-207) sequence corresponds to UniProtKB® primary accession number P10415 and the BCLXL(2-196) sequence corresponds to UniProtKB® primary accession number Q07817-1.
(§6) The assay was performed in a 40 μL volume in white 384-standard well plates (Corning #3574). An 11-point serial dilution of each compound was prepared in DMSO and transferred directly to plate followed by addition of fluorescein labelled peptide and lastly protein. Final assay conditions were 0.5 nM BCL2_wt, BCL2_G101V, BCL2_D103Y, BCL2_F104I, BCL2_D111A or BCLXL_wt, 2 or 20 nM fluorescein labelled peptide, 50 mM Hepes pH 7.5, 150 mM NaCl, 0.5 mM TCEP (Tris(2-carboxyethyl)phosphine), 0.05% Tween 20, 5% DMSO. The mixture was incubated for 2 hours at 23° C.
(§7) TR-FRET measurements were performed on a Biotek Synergy Neo plate reader. TR-FRET was measured by excitation of the Terbium-donor at 340 nm and subsequent (delay time 100 μs) measurement of terbium and fluorescein emission at 495 nm and 520 nm, respectively, over a collection time of 300 μs. The TR-FRET signal was calculated as the emission-ratio at 520 nm over 495 nm.
(§8) The TR-FRET ratio readout for test compounds was normalized against 0% inhibition controls wells and 100% inhibition control wells. Test compound potency (IC50) was estimated by nonlinear regression using the sigmoidal dose-response (variable slope) using Xlfit 4 (IDBS, Guildford, Surrey, UK, model 205). Were the IC50 could not be determined the % inhibition at the highest tested concentration is given.
(§9) y=(A+((B−A)/(1+((C/x)^D))))
(§10) where y is the normalized TR-TRET ratio measurement for a given concentration of test compound, x is the concentration of test compound, A is the estimated efficacy (% inhibition) at infinite compound dilution, and B is the maximal efficacy (% inhibition). C is the IC50 value and D is the Hill slope coefficient.
(§11) The K1 values were determined from the IC50 values according to Cer et al, Nucleic Acids Res, 2009, July 1; 37 (WebServer issue): W441-W445.

[5] = molecular target: BCL2 WT (Homo sapiens (Human), UniProt P10415); experiment: TR-FRET competitive binding assay, BCL2 WT
In short: as §1

[6] = test system: KMS-12-PE Bcl-2 G101V; experiment: In vitro cytotoxicity CellTiter-Glo 48 h, KMS-12-PE Bcl-2 G101V; format: cell-based; details: for Ratio (G101V/WT): C50 KMS-12-PE Bcl-2 G101V over C50 KMS-12-PE Bcl-2 WT; for IC50: Homo sapiens, KMS-12-PE, 48 h, CellTiter-Glo, C50 = concentration needed to reach 50% of the cellular viability
In short: as §2

[7] = molecular target: BCL2 G101V (Homo sapiens, UniProt P10415, G101V); experiment: TR-FRET competitive binding assay, BCL2 G101V; details: BCL2 G101V; Ki determined from IC50; read-out: TR_FRET EKI_Bcl2 G101V
In short: as §1

[8] = test system: BCL2 G101V; experiment: TR-FRET competitive binding assay, BCL2 G101V; design: species or system human; details: for TR_FRET EKI G101V/WT selectivty ratio: ratio Ki BCL2 G101V / Ki BCL2 WT
In short: as §1

[9] = molecular target: BCL2 F104I (Homo sapiens, UniProt P10415, F104I); experiment: TR-FRET competitive binding assay, BCL2 F104I; details: Ki determined from IC50, read-out: TR_FRET EKI_Bcl2 F104I
Method: as §3, §4, §5, §6, §7, §8, §9, §10, §11

[10] = Ki determined from IC50, read-out: TR_FRET EKI_Bcl2 WT

Row | SMILES | Ki [1] | Ki [2] | TR_FRET EKI BCLxL/WT selectivty ratio [2] | Ki [4] | Ki [5, 10] | Ki [7] | TR_FRET EKI G101V/WT selectivty ratio [8] | Ki [9] | TR_FRET EKI BCLxL/WT selectivty ([2]; ratio of Ki BCLxL to BCL2 WT) | Ki ([5]; Ki determined from IC50, read-out: TR_FRET EKI_Bcl2) | TR_FRET EKI G101V/WT selectivty ([8]; ratio of Ki BCL2 G101V to BCL2 WT) | IC50 [3] | Ratio (G101V/WT) [6] | IC50 [6]
1 | Cc1c(N(C(=O)c2cc(-c3cc4c(cc3C(=O)N3Cc5ccccc5C[C@H]3C)CN(C(=O)Cc3ccc(OCCN5C[C@H](C)O[C@@H](C)C5)cc3)CC4)n(C)c2C)c2ccc(O)cc2)cc(C#N)n1C (single isomer, unassigned) [Example 42, N-(5-cyano-1,2-dimethyl-1H-pyrrol-3-yl)-5-{2-[2-(4-{2-[(2R or S,6R or S)-2,6-dimethylmorpholin-4-yl]ethoxy}phenyl)acetyl]-7-[(3R)-3-methyl-1,2,3,4-tetrahydroisoquinoline-2-carbonyl]-1,2,3,4-tetrahydroisoquinolin-6-yl}-N-(4-hydroxyphenyl)-1,2-dimethyl-1H-pyrrole-3-carboxamide] | 0.62 nM | 3 nM | 16.7 | 0.36 nM | 0.18 nM | 0.3 nM | 1.8 | 0.76 nM | – | – | – | 0.0046 µM | 3.77 | 0.0175 µM
2 | Cc1c(N(C(=O)c2cc(-c3cc4c(cc3C(=O)N3Cc5ccccc5C[C@H]3C)CN(C(=O)Cc3ccc(N5CCC(N6CCOCC6)C5)cc3)CC4)n(C)c2C)c2ccc(O)cc2)cc(C#N)n1C (single isomer, unassigned) [Example 63, N-(5-cyano-1,2-dimethyl-1H-pyrrol-3-yl)-N-(4-hydroxyphenyl)-1,2-dimethyl-5-{7-[(3R)-3-methyl-1,2,3,4-tetrahydroisoquinoline-2-carbonyl]-2-(2-{4-[(3R or S)-3-(morpholin-4-yl)pyrrolidin-1-yl]phenyl}acetyl)-1,2,3,4-tetrahydroisoquinolin-6-yl}-1H-pyrrole-3-carboxamide] | 0.46 nM | 1.7 nM | 15.5 | 0.42 nM | 0.11 nM | 0.9 nM | 7.8 | 2.84 nM | – | – | – | 0.0079 µM | 5.84 | 0.046 µM
3 | Cc1c(N(C(=O)c2cc(-c3cc4c(cc3C(=O)N3Cc5ccccc5C[C@H]3C)CN(C(=O)Cc3cccc(N5CCOCC5)c3)CC4)n(C)c2C)c2ccc(O)cc2)cc(C#N)n1C [Example 6, N-(5-cyano-1,2-dimethylpyrrol-3-yl)-N-(4-hydroxyphenyl)-1,2-dimethyl-5-(7-{[(3R)-3-methyl-3,4-dihydro-1H-isoquinolin-2-yl]carbonyl}-2-{2-[3-(morpholin-4-yl)phenyl]acetyl}-3,4-dihydro-1H-isoquinolin-6-yl)pyrrole-3-carboxamide] | 0.67 nM | 1.1 nM | 8.5 | – | 0.13 nM | 0.7 nM | 5.1 | 2.03 nM | – | – | – | 0.0106 µM | 5.34 | 0.0566 µM
4 | Cc1cc(O)ccc1N(C(=O)c1cc(-c2cc3c(cc2C(=O)N2Cc4ccccc4C[C@H]2C)CN(C(=O)Cc2ccccc2)CC3)n(C)c1C)c1cc(C#N)n(C)c1C [Example 9, N-(5-cyano-1,2-dimethyl-1H-pyrrol-3-yl)-N-(4-hydroxy-2-methylphenyl)-1,2-dimethyl-5-{7-[(3R)-3-methyl-1,2,3,4-tetrahydroisoquinoline-2-carbonyl]-2-(2-phenylacetyl)-1,2,3,4-tetrahydroisoquinolin-6-yl}-1H-pyrrole-3-carboxamide] | 1.27 nM | – | – | – | 0.48 nM | 2.8 nM | 5.8 | 17.9 nM | – | – | – | 0.0254 µM | 7.01 | 0.178 µM
5 | Cc1c(N(C(=O)c2cc(-c3cc4c(cc3C(=O)N3Cc5ccccc5C[C@H]3C)CN(C(=O)Cc3ccc(OCCN5CCOCC5)cc3)CC4)n(C)c2C)c2ccccc2)cc(C#N)n1C [Example 236] | 0.786 nM | 4.15 nM | – | 0.132 nM | – | 0.73 nM | – | 1.12 nM | 53.1 | 0.078 nM | 9.3 | 0.00418 µM | – | –

The remaining compounds from weak to strong by Ki [1], led by results:

Row | Ki [1] | Ki [2] | TR_FRET EKI BCLxL/WT selectivty ratio [2] | Ki [4] | Ki [5, 10] | Ki [7] | TR_FRET EKI G101V/WT selectivty ratio [8] | Ki [9] | TR_FRET EKI BCLxL/WT selectivty ([2]; ratio of Ki BCLxL to BCL2 WT) | Ki ([5]; Ki determined from IC50, read-out: TR_FRET EKI_Bcl2) | TR_FRET EKI G101V/WT selectivty ([8]; ratio of Ki BCL2 G101V to BCL2 WT) | SMILES | IC50 [3] | Ratio (G101V/WT) [6] | IC50 [6]
6 | 1.09 nM | 2.1 nM | 12.7 | – | 0.17 nM | 0.5 nM | 3.0 | 3.08 nM | – | – | – | Cc1c(N(C(=O)c2cc(-c3cc4c(cc3C(=O)N3Cc5ccccc5C[C@H]3C)CN(C(=O)COc3ccccc3)CC4)n(C)c2C)c2ccc(O)cc2)cc(C#N)n1C [Example 2, N-(5-cyano-1,2-dimethyl-1H-pyrrol-3-yl)-N-(4-hydroxyphenyl)-1,2-dimethyl-5-{7-[(3R)-3-methyl-1,2,3,4-tetrahydroisoquinoline-2-carbonyl]-2-(2-phenoxyacetyl)-1,2,3,4-tetrahydroisoquinolin-6-yl}-1H-pyrrole-3-carboxamide] | 0.004 µM | 5.04 | 0.02 µM
7 | 0.12 nM | 1.3 nM | 43.3 | – | 0.03 nM | 0.4 nM | 11.7 | 1.65 nM | – | – | – | Cc1c(N(C(=O)c2cc(-c3cc4c(cc3C(=O)N3Cc5ccccc5C[C@H]3C)CN(C(=O)Cc3cccc(N5CCN(C)CC5)c3)CC4)n(C)c2C)c2ccccc2)cc(C#N)n1C [Example 3, N-(5-cyano-1,2-dimethylpyrrol-3-yl)-1,2-dimethyl-5-(7-{[(3R)-3-methyl-3,4-dihydro-1H-isoquinolin-2-yl]carbonyl}-2-{2-[3-(4-methylpiperazin-1-yl)phenyl]acetyl}-3,4-dihydro-1H-isoquinolin-6-yl)-N-phenylpyrrole-3-carboxamide] | 0.0054 µM | 9.44 | 0.051 µM
